Assay results as given in US6943183B2 (Pfizer Inc, priority 2000, dated 2005).

Each molecule was assayed against T1, SF9 affinity purified rat FPT (Rattus norvegicus, UniProt Q02293+Q04631) (assay: PFT (FPT) inhibitory activity assay, radiolabeled farnesyl pyrophosphate and biotinyl peptide, streptavidin beads). Settings: HEPES buffer pH 7.4, 30° C., 30 minutes; read-out: FTase IC50.
T1 construct: made in house; host or cells: Sf9 insect cells
Assay type: biochemical
How it was run: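 Rat FPT expressed in SF9 cells was incubated 30 minutes at 30° C. with compound (in 10% DMSO), radiolabeled farnesyl pyrophosphate and biotinylated peptide. Buffer: HEPES pH 7.4, ZnCl2 20 μM, MgCl2 and DTT 5 mM each, 0.1% PEG 8000, 5 mM potassium phosphate (also run without phosphate). Product captured on streptavidin beads in magnesium acetate/H3PO4 stop buffer.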

| IC50 [nM] | Compound |
| --- | --- |
| 19 | O=C1CCCc2c1ccc(O[C@H](Cn1ccnc1)c1ccccc1)c2CNc1ccc(F)cc1 [Compound 151, 5-[(4-Fluoro-phenylamino)-methyl]-6-((S)-2-imidazol-1-yl-1-phenyl-ethoxy)-3,4-dihydro-2H-napthalen-1-one] |
| 5 | O=C1CCCc2c1ccc(O[C@H](Cn1ccnc1)c1ccccc1)c2CNc1ccc2c(c1)OCCO2 [Compound 152, 5-[(2,3-Dihydro-benzo[1,4]dioxin-6-ylamino)-methyl]-6-((S)-2-imidazol-1-yl-1-phenyl-ethoxy)-3,4-dihydro-2H-napthalen-1-one] |
| 15 | O=C1CCCc2c1ccc(O[C@H](Cn1ccnc1)c1ccccc1)c2CSCc1ccc(Cl)c(Cl)c1 [Compound 153, 5-(3,4-Dichloro-benzylsulfanylmethyl)-6-((1S)-2-imidazol-1-yl-1-phenyl-ethoxy)-3,4-dihydro-2H-naphthalen-1-one] |
| 2.6 | COC(=O)c1ccccc1S(=O)(=O)Cc1c(O[C@H](Cn2ccnc2)c2ccccc2)ccc2c1CCCC2=O [Compound 154, Methyl 2-{[(2-{[(1S)-2-(1H-Imidazol-1-yl)-1-phenylethyl]oxy}-5-oxo-5,6,7,8-tetrahydro-1-naphthalenyl)methyl]sulfonyl}benzoate] |
| 20 | COC(=O)c1ccc(S(=O)(=O)Cc2c(O[C@H](Cn3ccnc3)c3ccccc3)ccc3c2CCCC3=O)cc1 [Compound 155, Methyl 4-{[(2-{[(1S)-2-(1H-Imidazol-1-yl)-1-phenylethyl]oxy}-5-oxo-5,6,7,8-tetrahydro-1-naphthalenyl)methyl]sulfonyl}benzoate] |
| 5 | COC(=O)c1cccc(S(=O)(=O)Cc2c(O[C@H](Cn3ccnc3)c3ccccc3)ccc3c2CCCC3=O)c1 [Compound 156] |
| 4 | COC(=O)c1ccc(SCc2c(O[C@H](Cn3ccnc3)c3ccccc3)ccc3c2CCCC3=O)cc1 [Compound 157, Methyl 4-{[(2-{[(1S)-2-(1H-Imidazol-1-yl)-1-phenylethyl]oxy}-5-oxo-5,6,7,8-tetrahydro-1-naphthalenyl)methyl]sulfanyl}benzoate] |
| 4 | COC(=O)c1cccc(SCc2c(O[C@H](Cn3ccnc3)c3ccccc3)ccc3c2CCCC3=O)c1 [Compound 158, Methyl 3-{[(2-{[(1S)-2-(1H-Imidazol-1-yl)-1-phenylethyl]oxy}-5-oxo-5,6,7,8-tetrahydro-1-naphthalenyl)methyl]sulfanyl}benzoate] |
| 5.5 | O=C(O)c1ccccc1S(=O)(=O)Cc1c(O[C@H](Cn2ccnc2)c2ccccc2)ccc2c1CCCC2=O [Compound 159, 2-{[(2-{[(1S)-2-(1H-Imidazol-1-yl)-1-phenylethyl]oxy}-5-oxo-5,6,7,8-tetrahydro-1-naphthalenyl)methyl]sulfonyl}benzoic Acid] |
| 10 | O=C(O)c1ccc(S(=O)(=O)Cc2c(O[C@H](Cn3ccnc3)c3ccccc3)ccc3c2CCCC3=O)cc1 [Compound 160, 4-{[(2-{[(1S)-2-(1H-Imidazol-1-yl)-1-phenylethyl]oxy}-5-oxo-5,6,7,8-tetrahydro-1-naphthalenyl)methyl]sulfonyl}benzoic Acid] |
| 5 | O=C(O)c1cccc(S(=O)(=O)Cc2c(O[C@H](Cn3ccnc3)c3ccccc3)ccc3c2CCCC3=O)c1 [Compound 161, 3-{[(2-{[(1S)-2-(1H-Imidazol-1-yl)-1-phenylethyl]oxy}-5-oxo-5,6,7,8-tetrahydro-1-naphthalenyl)methyl]sulfonyl}benzoic Acid] |
| 8 | O=C(O)c1ccc(SCc2c(O[C@H](Cn3ccnc3)c3ccccc3)ccc3c2CCCC3=O)cc1 [Compound 162, 4-{[(2-{[(1S)-2-(1H-Imidazol-1-yl)-1-phenylethyl]oxy}-5-oxo-5,6,7,8-tetrahydro-1-naphthalenyl)methyl]sulfanyl}benzoic Acid] |
| 5 | O=C(O)c1cccc(SCc2c(O[C@H](Cn3ccnc3)c3ccccc3)ccc3c2CCCC3=O)c1 [Compound 163, 3-{[(2-{[(1S)-2-(1H-Imidazol-1-yl)-1-phenylethyl]oxy}-5-oxo-5,6,7,8-tetrahydro-1-naphthalenyl)methyl]sulfanyl}benzoic Acid] |
| 5.3 | CNC(=O)c1ccccc1S(=O)(=O)Cc1c(O[C@H](Cn2ccnc2)c2ccccc2)ccc2c1CCCC2=O [Compound 164, 2-{[(2-{[(1S)-2-(1H-Imidazol-1-yl)-1-phenylethyl]oxy}-5-oxo-5,6,7,8-tetrahydro-1-naphthalenyl)methyl]sulfonyl)-N-methylbenzamide] |
| 6.4 | O=C(NCCO)c1ccccc1S(=O)(=O)Cc1c(O[C@H](Cn2ccnc2)c2ccccc2)ccc2c1CCCC2=O [Compound 165, N-(2-Hydroxyethyl)-2-{[(2-{[(1S)-2-(1H-imidazol-1-yl)-1-phenylethyl]oxy}-5-oxo-5,6,7,8-tetrahydro-1-naphthalenyl)methyl]sulfonyl}benzamide] |
| 30 | O=C(O)CCNC(=O)c1ccc(S(=O)(=O)Cc2c(O[C@H](Cn3ccnc3)c3ccccc3)ccc3c2CCCC3=O)cc1 [Compound 166, N-4-{[(2-{[(1S)-2-(1H-Imidazol-1-yl)-1-phenylethyl]oxy}-5-oxo-5,6,7,8-tetrahydro-1-naphthalenyl)methyl]sulfonyl}benzoyl-β-alanine] |
| 7 | O=C(O)CCNC(=O)c1ccccc1S(=O)(=O)Cc1c(O[C@H](Cn2ccnc2)c2ccccc2)ccc2c1CCCC2=O [Compound 167, N-2-{[(2-{[(1S)-2-(1H-Imidazol-1-yl)-1-phenylethyl]oxy}-5-oxo-5,6,7,8-tetrahydro-1-naphthalenyl)methyl]sulfonyl}benzoyl-β-alanine] |
| 10 | O=C(O)CCNC(=O)c1cccc(S(=O)(=O)Cc2c(O[C@H](Cn3ccnc3)c3ccccc3)ccc3c2CCCC3=O)c1 [Compound 168, N-3-{[(2-{[(1S)-2-(1H-Imidazol-1-yl)-1-phenylethyl]oxy}-5-oxo-5,6,7,8-tetrahydro-1-naphthalenyl)methyl]sulfonyl}benzoyl-β-alanine] |
| 7 | O=C(O)CCNC(=O)c1ccccc1SCc1c(O[C@H](Cn2ccnc2)c2ccccc2)ccc2c1CCCC2=O [Compound 169, N-2-{[(2-{[(1S)-2-(1H-Imidazol-1-yl)-1-phenylethyl]oxy}-5-oxo-5,6,7,8-tetrahydro-1-naphthalenyl)methyl]sulfanyl}benzoyl-β-alanine] |
| 7 | O=C(O)CCNC(=O)c1ccc(SCc2c(O[C@H](Cn3ccnc3)c3ccccc3)ccc3c2CCCC3=O)cc1 [Compound 170, N-4-{[(2-{[(1S)-2-(1H-Imidazol-1-yl)-1-phenylethyl]oxy}-5-oxo-5,6,7,8-tetrahydro-1-naphthalenyl)methyl]sulfanyl}benzoyl-β-alanine] |
| 6 | O=C(O)CCNC(=O)c1cccc(SCc2c(O[C@H](Cn3ccnc3)c3ccccc3)ccc3c2CCCC3=O)c1 [Compound 171, N-3-{[(2-{[(1S)-2-(1H-Imidazol-1-yl)-1-phenylethyl]oxy}-5-oxo-5,6,7,8-tetrahydro-1-naphthalenyl)methyl]sulfanyl}benzoyl-β-alanine] |
| 5 | O=C(NCCO)c1cccc(SCc2c(O[C@H](Cn3ccnc3)c3ccccc3)ccc3c2CCCC3=O)c1 [Compound 172, N-(2-Hydroxyethyl)-3-{[(2-{[(1S)-2-(1H-imidazol-1-yl)-1-phenylethyl]oxy}-5-oxo-5,6,7,8-tetrahydro-1-naphthalenyl)methyl]sulfanyl}benzamide] |
| 4 | O=C(NCCO)c1ccccc1SCc1c(O[C@H](Cn2ccnc2)c2ccccc2)ccc2c1CCCC2=O [Compound 173, N-(2-Hydroxyethyl)-2-{[(2-{[(1S)-2-(1H-imidazol-1-yl)-1-phenylethyl]oxy}-5-oxo-5,6,7,8-tetrahydro-1-naphthalenyl)methyl]sulfanyl}benzamide] |
| 3 | O=C(NCCO)c1ccc(SCc2c(O[C@H](Cn3ccnc3)c3ccccc3)ccc3c2CCCC3=O)cc1 [Compound 174, N-(2-Hydroxyethyl)-4-{[(2-{[(1S)-2-(1H-imidazol-1-yl)-1-phenylethyl]oxy}-5-oxo-5,6,7,8-tetrahydro-1-naphthalenyl)methyl]sulfanyl}benzamide] |
| 10 | O=C(NCCO)c1ccc(S(=O)(=O)Cc2c(O[C@H](Cn3ccnc3)c3ccccc3)ccc3c2CCCC3=O)cc1 [Compound 175, N-(2-Hydroxyethyl)-4-{[(2-{[(1S)-2-(1H-imidazol-1-yl)-1-phenylethyl]oxy}-5-oxo-5,6,7,8-tetrahydro-1-naphthalenyl)methyl]sulfonyl}benzamide] |
| 7 | O=C(NCCO)c1cccc(S(=O)(=O)Cc2c(O[C@H](Cn3ccnc3)c3ccccc3)ccc3c2CCCC3=O)c1 [Compound 176, N-(2-Hydroxyethyl)-3-{[(2-{[(1S)-2-(1H-imidazol-1-yl)-1-phenylethyl]oxy}-5-oxo-5,6,7,8-tetrahydro-1-naphthalenyl)methyl]sulfonyl}benzamide] |
| 3 | CN(C)CCNC(=O)c1ccc(SCc2c(O[C@H](Cn3ccnc3)c3ccccc3)ccc3c2CCCC3=O)cc1 [Compound 177, N-[2-(Dimethylamino)ethyl]-4-{[(2-{[(1S)-2-(1H-imidazol-1-yl)-1-phenylethyl]oxy}-5-oxo-5,6,7,8-tetrahydro-1-naphthalenyl)methyl]sulfanyl}benzamide] |
| 8 | CN(C)CCNC(=O)c1cccc(SCc2c(O[C@H](Cn3ccnc3)c3ccccc3)ccc3c2CCCC3=O)c1 [Compound 178, N-[2-(Dimethylamino)ethyl]-3-{[(2-{[(1S)-2-(1H-imidazol-1-yl)-1-phenylethyl]oxy}-5-oxo-5,6,7,8-tetrahydro-1-naphthalenyl)methyl]sulfanyl}benzamide] |
| 6 | CN(C)CCNC(=O)c1ccccc1SCc1c(O[C@H](Cn2ccnc2)c2ccccc2)ccc2c1CCCC2=O [Compound 179, N-[2-(Dimethylamino)ethyl]-2-{[(2-{[(1S)-2-(1H-imidazol-1-yl)-1-phenylethyl]oxy}-5-oxo-5,6,7,8-tetrahydro-1-naphthalenyl)methyl]sulfanyl}benzamide] |
